According to patent publication US20100272680A1, “Piperidinyl Cyclic Amido Antiviral Agents” (priority 2009, published 2010):

How the values were obtained:
[1] = tested on: HCV Genotype 1A Replicon; test: Replicon assay, genotype 1a subgenomic replicon, luciferase readout; assay type: cell-based; settings: Hepatitis C virus, 48 h, Table 3; luciferase activity after 48 hours
In short: (§1)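 Stable luciferase replicon cells (1b: ET line with adaptive mutations; 1a: Apath-derived) plated at 0.5×10^4 cells/well with compound (final 0.03–50 μM, 0.5–1% DMSO). Luciferase read after 48 h; EC50 from 10-point, 3–4-fold dilution curves by four-parameter logistic fit, normalized to no-compound and no-cell controls.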

[2] = tested on: HCV Genotype 1B Replicon; test: Replicon assay, genotype 1b subgenomic replicon (ET cell line), luciferase readout; assay type: cell-based; settings: Hepatitis C virus, 48 h, Table 3; luciferase activity after 48 hours
In short: as §1

## O=C(c1nc2c(C(F)(F)F)cc(C3CC3)cn2c1Cl)N1CCC(N2C(=O)CCC2=O)CC1 [Compound 200, 1-(1-{[3-chloro-6-cyclopropyl-8-(trifluoromethyl)imidazo[1,2-a]pyridin-2-yl]carbonyl}-4-piperidinyl)-2,5-pyrrolidinedione]
[1]
  EC50: 0.17 µM
[2]
  EC50: 0.03 µM

## O=C(c1nc2c(C(F)(F)F)cc(-c3ccco3)cn2c1Cl)N1CCC(N2CCOC2=O)CC1 [Compound 146, 3-(1-{[3-chloro-6-(2-furanyl)-8-(trifluoromethyl)imidazo[1,2-a]pyridin-2-yl]carbonyl}-4-piperidinyl)-1,3-oxazolidin-2-one]
[1]
  EC50: 0.02 µM
[2]
  EC50: 0.03 µM

## O=C(c1nc2c(C(F)(F)F)cc(Br)cn2c1Cl)N1CCC(N2C(=O)COC2=O)CC1 [Compound 142, 3-(1-{[6-bromo-3-chloro-8-(trifluoromethyl)imidazo[1,2-a]pyridin-2-yl]carbonyl}-4-piperidinyl)-1,3-oxazolidine-2,4-dione]
[1]
  EC50: 0.07 µM
[2]
  EC50: 0.07 µM

## CC(C)Cc1cc(C(F)(F)F)c2nc(C(=O)N3CCC(N4C(=O)COC4=O)CC3)c(Cl)n2c1 [Compound 140, 3-(1-{[3-chloro-6-(2-methylpropyl)-8-(trifluoromethyl)imidazo[1,2-a]pyridin-2-yl]carbonyl}-4-piperidinyl)-1,3-oxazolidine-2,4-dione]
[1]
  EC50: 0.05 µM
[2]
  EC50: 0.15 µM

## CO[C@H]1CN(C(=O)c2nc3c(C(F)(F)F)cc(-c4ccoc4)cn3c2Cl)CC[C@@H]1N1CCOC1=O (racemic) [Compound 236, (±) trans-3-[1-{[3-chloro-6-(3-furanyl)-8-(trifluoromethyl)imidazo[1,2-a]pyridin-2-yl]carbonyl}-3-(methyloxy)-4-piperidinyl]-1,3-oxazolidin-2-one]
[1]
  EC50: ≥ 5.01 µM
[2]
  EC50: ≥ 5.01 µM

## O=C(c1nc2c(C(F)(F)F)cc(-c3cn[nH]n3)cn2c1Cl)N1CCC(N2CCOC2=O)CC1 [Compound 148, 3-(1-{[3-chloro-6-(2H-1,2,3-triazol-4-yl)-8-(trifluoromethyl)imidazo[1,2-a]pyridin-2-yl]carbonyl}-4-piperidinyl)-1,3-oxazolidin-2-one]
[1]
  EC50: 0.22 µM
[2]
  EC50: 0.54 µM

## O=C(c1nc2c(C(F)(F)F)cc(-c3ccc(O)cc3)cn2c1Cl)N1CCC(N2CCOC2=O)CC1 [Compound 123]
[1]
  EC50: 0.03 µM
[2]
  EC50: 0.38 µM

## C[C@H]1CN(C2CCN(C(=O)c3nc4c(C(F)(F)F)cc(-c5ccoc5)cn4c3Cl)CC2)C(=O)O1 [Compound 184, (5S)-3-(1-{[3-chloro-6-(3-furanyl)-8-(trifluoromethyl)imidazo[1,2-a]pyridin-2-yl]carbonyl}-4-piperidinyl)-5-methyl-1,3-oxazolidin-2-one]
[1]
  EC50: 0.22 µM
[2]
  EC50: 0.08 µM

## CC(C)Cn1cc(-c2cc(C(F)(F)F)c3nc(C(=O)N4CCC(N5CCOC5=O)CC4)c(Cl)n3c2)cn1 [Compound 126, 3-(1-{[3-chloro-6-[1-(2-methylpropyl)-1H-pyrazol-4-yl]-8-(trifluoromethyl)imidazo[1,2-a]pyridin-2-yl]carbonyl}-4-piperidinyl)-1,3-oxazolidin-2-one]
[1]
  EC50: 13.7 µM
[2]
  EC50: ≥ 50.1 µM

## O=C(c1nc2c(C(F)(F)F)cc(Br)cn2c1Cl)N1CC[C@H](N2CCCC2=O)[C@@H](O)C1 (racemic) [Compound 226, (±) trans-1-(1-{[6-bromo-3-chloro-8-(trifluoromethyl)imidazo[1,2-a]pyridin-2-yl]carbonyl}-3-hydroxy-4-piperidinyl)-2-pyrrolidinone]
[1]
  EC50: 2.26 µM
[2]
  EC50: 1.45 µM

## O=C(c1nc2c(C(F)(F)F)cc(-c3ccoc3)cn2c1Cl)N1CCC(N2C(=O)CNC2=O)CC1 [Compound 175, 3-(1-{[3-chloro-6-(3-furanyl)-8-(trifluoromethyl)imidazo[1,2-a]pyridin-2-yl]carbonyl}-4-piperidinyl)-2,4-imidazolidinedione]
[1]
  EC50: 2.57 µM
[2]
  EC50: 0.14 µM

## CC1(C)CN(C2CCN(C(=O)c3nc4c(C(F)(F)F)cc(-c5ccoc5)cn4c3Cl)CC2)C(=O)O1 [Compound 181, 3-(1-{[3-chloro-6-(3-furanyl)-8-(trifluoromethyl)imidazo[1,2-a]pyridin-2-yl]carbonyl}-4-piperidinyl)-5,5-dimethyl-1,3-oxazolidin-2-one]
[1]
  EC50: 6.53 µM
[2]
  EC50: 7.08 µM

## O=C(c1nc2c(C(F)(F)F)cc(C3CC3)cn2c1Cl)N1CC[C@H](N2CCOC2=O)[C@H](O)C1 (racemic) [Compound 231, (±) cis-3-(1-{[3-chloro-6-cyclopropyl-8-(trifluoromethyl)imidazo[1,2-a]pyridin-2-yl]carbonyl}-3-hydroxy-4-piperidinyl)-1,3-oxazolidin-2-one]
[1]
  EC50: 0.02 µM
[2]
  EC50: 0.03 µM

## CC(C)Cc1cc(C(F)(F)F)c2nc(C(=O)N3CCC(N4CCOC4=O)CC3)c(Cl)n2c1 [Compound 130, 3-(1-{[3-chloro-6-(2-methylpropyl)-8-(trifluoromethyl)imidazo[1,2-a]pyridin-2-yl]carbonyl}-4-piperidinyl)-1,3-oxazolidin-2-one]
[1]
  EC50: 0.02 µM
[2]
  EC50: 0.05 µM

## O=C1CN(C2CCN(C(=O)c3nc4c(C(F)(F)F)cc(-c5ccoc5)cn4c3Cl)CC2)C(=O)N1 [Compound 171, 1-(1-{[3-chloro-6-(3-furanyl)-8-(trifluoromethyl)imidazo[1,2-a]pyridin-2-yl]carbonyl}-4-piperidinyl)-2,4-imidazolidinedione]
[1]
  EC50: 0.81 µM
[2]
  EC50: 0.58 µM

## O=C(c1nc2c(C(F)(F)F)cc(-c3ccncc3)cn2c1Cl)N1CCC(N2CCOC2=O)CC1 [Compound 113]
[1]
  EC50: 0.74 µM
[2]
  EC50: 9.66 µM

## O=C(c1nc2c(C(F)(F)F)cc(C3CC3)cn2c1Cl)N1CCC(N2CCOC2=O)CC1 [Compound 156, 3-(1-{[3-chloro-6-cyclopropyl-8-(trifluoromethyl)imidazo[1,2-a]pyridin-2-yl]carbonyl}-4-piperidinyl)-1,3-oxazolidin-2-one]
[1]
  EC50: 0.01 µM
[2]
  EC50: 0.01 µM

## O=C(c1nc2c(C(F)(F)F)cc(I)cn2c1Br)N1CCC(N2C(=O)COC2=O)CC1 [Compound 195, 3-(1-{[3-bromo-6-iodo-8-(trifluoromethyl)imidazo[1,2-a]pyridin-2-yl]carbonyl}-4-piperidinyl)-1,3-oxazolidine-2,4-dione]
[1]
  EC50: 0.05 µM
[2]
  EC50: 0.03 µM

## C[C@@H]1C[C@@H](N2CCOC2=O)CCN1C(=O)c1nc2c(C(F)(F)F)cc(-c3ccoc3)cn2c1Cl (racemic) [Compound 206, (±) trans-3-(1-{[3-chloro-6-(3-furanyl)-8-(trifluoromethyl)imidazo[1,2-a]pyridin-2-yl]carbonyl}-2-methyl-4-piperidinyl)-1,3-oxazolidin-2-one]
[1]
  EC50: 0.07 µM
[2]
  EC50: 0.14 µM

## N#Cc1c(C(=O)N2CCC(N3CCOC3=O)CC2)nc2c(C(F)(F)F)cc(C3CC3)cn12 [Compound 162, 6-cyclopropyl-2-{[4-(2-oxo-1,3-oxazolidin-3-yl)-1-piperidinyl]carbonyl}-8-(trifluoromethyl)imidazo[1,2-a]pyridine-3-carbonitrile]
[1]
  EC50: 0.01 µM
[2]
  EC50: 0.01 µM

## O=C(c1nc2c(C(F)(F)F)cc(C3CC3)cn2c1Cl)N1CCC(N2C(=O)COC2=O)CC1 [Compound 202, 3-(1-{[3-chloro-6-cyclopropyl-8-(trifluoromethyl)imidazo[1,2-a]pyridin-2-yl]carbonyl}-4-piperidinyl)-1,3-oxazolidine-2,4-dione]
[1]
  EC50: 0.02 µM
[2]
  EC50: 0.01 µM

## COc1ccccc1-c1cc(C(F)(F)F)c2nc(C(=O)N3CCC(N4CCOC4=O)CC3)c(Cl)n2c1 [Compound 116]
[1]
  EC50: 0.36 µM
[2]
  EC50: 7.41 µM

## O=C(c1nc2c(C(F)(F)F)cc(-c3ccoc3)cn2c1Cl)N1CC[C@H](N2CCCC2=O)[C@H](O)C1 (racemic) [Compound 230, (±) cis-1-(1-{[3-chloro-6-(3-furanyl)-8-(trifluoromethyl)imidazo[1,2-a]pyridin-2-yl]carbonyl}-3-hydroxy-4-piperidinyl)-2-pyrrolidinone]
[1]
  EC50: 0.42 µM
[2]
  EC50: 0.18 µM

## O=C(c1nc2c(C(F)(F)F)cc(Br)cn2c1Cl)N1CC[C@H](N2C(=O)COC2=O)[C@@H](O)C1 (racemic) [Compound 222, (±) trans-3-(1-{[6-bromo-3-chloro-8-(trifluoromethyl)imidazo[1,2-a]pyridin-2-yl]carbonyl}-3-hydroxy-4-piperidinyl)-1,3-oxazolidine-2,4-dione]
[1]
  EC50: 0.94 µM
[2]
  EC50: 0.02 µM

## C[C@H]1OC(=O)N(C2CCN(C(=O)c3nc4c(C(F)(F)F)cc(C5CC5)cn4c3Cl)CC2)C1=O [Compound 192, (5R)-3-(1-{[3-chloro-6-cyclopropyl-8-(trifluoromethyl)imidazo[1,2-a]pyridin-2-yl]carbonyl}-4-piperidinyl)-5-methyl-1,3-oxazolidine-2,4-dione]
[1]
  EC50: 0.28 µM
[2]
  EC50: 0.02 µM

## CN1CCN(C2CCN(C(=O)c3nc4c(C(F)(F)F)cc(-c5ccoc5)cn4c3Cl)CC2)C1=O [Compound 173, 1-(1-{[3-chloro-6-(3-furanyl)-8-(trifluoromethyl)imidazo[1,2-a]pyridin-2-yl]carbonyl}-4-piperidinyl)-3-methyl-2-imidazolidinone]
[1]
  EC50: 0.75 µM
[2]
  EC50: 0.48 µM

## O=C(c1nc2c(C(F)(F)F)cc(OC(F)F)cn2c1Cl)N1CCC(N2CCOC2=O)CC1 [Compound 144, 3-(1-{[3-chloro-6-[(difluoromethyl)oxy]-8-(trifluoromethyl)imidazo[1,2-a]pyridin-2-yl]carbonyl}-4-piperidinyl)-1,3-oxazolidin-2-one]
[1]
  EC50: 0.02 µM
[2]
  EC50: 0.05 µM

## O=C(c1nc2c(C(F)(F)F)cc(-c3ccoc3)cn2c1Cl)N1CC[C@@H](N2CCOC2=O)[C@H](O)C1 (racemic) [Compound 212, (±) trans-3-(1-{[3-chloro-6-(3-furanyl)-8-(trifluoromethyl)imidazo[1,2-a]pyridin-2-yl]carbonyl}-3-hydroxy-4-piperidinyl)-1,3-oxazolidin-2-one]
[1]
  EC50: 0.05 µM
[2]
  EC50: 0.08 µM
